The record followed here is a melting point compilation (Tetko et al.; mined from patent text by program, amines drawn as free bases though some values may be those of a salt).

For orientation: melting point means the temperature, or range, at which the solid turns liquid.

`CSCc1cc2ccccc2n(-c2ccccc2)c1=O` came in with a melting point of 138 to 140 °C. As for `N#CCC(=O)Nc1ccccc1S`, the figure is 198 to 201 °C; as for `CCOC(=O)c1cc2ccccc2n1-c1ccc(OC)c(OC)c1`, 126 to 128 °C; as for `CN(C)C=Nc1cnc(-c2cccc(CO)c2)nc1`, 105 to 106 °C. `CCOC(=O)c1ncn2c3cccc(Br)c3c(=O)n(C)c12` showed a melting point of 272 °C. Molecule `COCCOc1ccc(OCC(O)CNCCOc2cccc(O)c2C(N)=O)cc1` (stereo not drawn) showed a melting point of 176 to 179 °C. As for `CCOC(=O)c1ccccc1Nc1nc(Nc2ccc3c(c2)CCN(CCOC)CC3)ncc1Cl`, the figure is 78 to 80 °C; as for `CC12CC(=O)C3C(CCC4CC(=O)CCC43C)C1CCC2C(=O)CBr` (stereo not drawn), 170 °C; as for `COC1=NS(=O)(=O)N(C)C(Oc2ccc([N+](=O)[O-])cc2)=N1`, 220 to 221 °C. Molecule `O=C(Nc1cccc2c3c(oc12)CCC=C3)c1c(Cl)cccc1Cl` registered a melting point of 165 to 167 °C. As for `CCCCCc1cc(C(=O)OC)ccc1O`, the figure is 82.5 to 83.5 °C; as for `CS(=O)(=O)c1ccc(C(=O)C2C(=O)CCCC2=O)c(Cl)c1C1=NOC2OCCC12` (stereo not drawn), 119 °C; as for `COc1ccc2c3c1C(=O)CC3CCO2` (stereo not drawn), 122 to 124 °C.

As to `CCOCc1cc2c(=O)c(C(=O)NCc3ccc(Cl)cc3)cn(C)c2o1`, the melting point was 211 to 212 °C.

Regarding `COc1ccc(N2CCOCC2)cc1NC(=S)C(=O)O`, the melting point was in the range of 156 to 158 °C. For `O=[N+]([O-])c1nc(NCCO)ccc1NCCO` the value was 158 °C. For `O=C(Nc1ccc(S(=O)(=O)C(F)(F)F)cc1Cl)c1cc(S(=O)c2ccc(F)cc2)c2ccccc2c1O` (stereo not drawn) the value was 198 to 200 °C; for `CCC1NC(=O)C2=C1c1ccc(Cl)cc1C(c1ccccc1Cl)=NC2` (stereo not drawn), 233 to 235 °C. As for `CCOc1ccccc1CNC(=O)[C@@H]1CCCN(c2cccc3c2C(=O)N(Cc2ccncc2)C3=O)C1`, the figure is 194 to 195 °C; as for `CC(Cc1ccc(Oc2cc(N3CCN(Cc4ccccc4)CC3)nc(NCc3ccccc3)n2)cc1)(Oc1ccccc1)C(=O)O` (stereo not drawn), 104 to 106 °C; as for `CCOC(=O)c1cnc2c(C)cc(-c3ccc(Cl)cc3)cn12`, 147 °C. In the case of `O=c1cc(NCCN2CCN(c3cccc(Cl)c3)CC2)cn[nH]1`, the melting point lay in the range of 187 to 189 °C. On to `O=C(O)CC1CCOc2ccc(Cl)cc21` (stereo not drawn), for which the melting point was in the range of 115 to 117 °C. `CCOC(=O)C1=C(C)NC(C)=C(C(=O)OCCN2CCN(C(c3ccccc3)c3ccccc3)CC2)C1c1ccc(Cl)cc1` (stereo not drawn) had a melting point of 75 to 79 °C. As for `Cc1cccc(NC(=O)NC2N=C(c3ccccc3F)c3ccccc3N(Cc3ccsc3)C2=O)c1` (racemic), the figure is 221 to 223 °C; as for `COc1ccc(N2C(=O)C3=C(SCCS3)C2CC(=O)N2CCCCC2)cc1` (stereo not drawn), 163 to 164 °C; as for `O=C1OC(OC(=O)c2cccnc2Nc2cccc(C(F)(F)F)c2)c2ccccc21` (stereo not drawn), 159 to 162 °C.

`CN1CCN(CC(=O)N2c3ccccc3N(C)C(=O)c3cncnc32)CC1` gave a melting point of 183 to 185 °C.

`CC=CCn1c(C)c(C)c2cnnc(NCc3ccc(F)cc3)c21` came in with a melting point of 135 to 138 °C. In turn, `CCCc1nc2c(N)nc3cc(OCc4ccc(C(C)(C)C)cc4)ccc3c2n1CC(C)C` gave a melting point of 204 to 205 °C. On to `CN(C)CCc1cccc2ccc(-c3ccccc3CNS(C)(=O)=O)cc12`, for which the melting point lay in the range of 151 to 154 °C. As for `CC1(C)CC(=O)C(C(=O)Nc2cccc(C(F)(F)F)c2)C(=O)O1` (stereo not drawn), the figure is 150 °C; as for `COc1ccc(Cl)cc1-c1nnn(-c2ccc(Cl)cc2Cl)c1N`, 154 to 155 °C; as for `CC(=O)c1ccc(NS(=O)(=O)c2sc3ccc(F)cc3c2C)c(S(C)(=O)=O)c1`, 174 to 175 °C. For `C=CCNc1nc(NCc2ccccc2)c2cc([N+](=O)[O-])ccc2n1` the value was 235 to 236 °C; for `O=C(O)c1nc(-c2ccc(Cl)cc2Cl)[nH]c1C(=O)O`, 238 °C. As for `O=C(N[C@H](Cc1ccccc1C(F)(F)F)[C@@H](O)c1ccc(F)cc1)C1CCCCC1` (racemic), the figure is 216 to 217 °C; as for `COC(=O)c1ccc(C=O)c2ccccc12`, 95 to 96 °C; as for `CC1(C)OCC(C(O)CN)O1` (stereo not drawn), 94 to 96 °C.

`CNC(C)CN1CCc2c(c(=O)oc3cc(C)c(NC(C)=O)cc23)C1` (stereo not drawn) had a melting point of 187 to 188 °C.

On to `Cc1cc(C2=NOC(c3cccc(C(F)(F)F)c3)(C(F)(F)F)C2)ccc1Br` (stereo not drawn), for which the melting point was 84 to 85 °C. As for `CCOC(=O)c1cn(C)c2cnc3cc(F)c(F)cc3c2c1=O`, the figure is 272 °C; as for `O=C(O)c1cc(Oc2ccc([N+](=O)[O-])cc2)cc(Oc2ccc([N+](=O)[O-])cc2)c1`, 230 to 232 °C. As for `CCCCCS(=O)(=O)NC(=O)/C=C/c1cc(C(C)(C)C)nn1Cc1ccc(C(F)(F)F)cc1Cl`, the figure is 147 to 148 °C; as for `O=C(O)c1ccc(C(=O)C=Cc2ccccc2)cc1`, 217 to 220 °C. As for `O=C1C(c2cccc(Br)c2)n2cncc2CN1Cc1cccnc1` (stereo not drawn), the figure is 50 to 54 °C. With `CC(O)(C(=O)Nc1ccc(S(=O)(=O)F)cc1)C(F)(F)F` (stereo not drawn), the melting point is 152 to 154 °C. For `CCOC(=O)CCc1cc([N+](=O)[O-])ccc1O` the value was 199 to 200 °C; for `CC(=O)c1ccc(C2=C(c3ccc(S(C)(=O)=O)cc3)OC(C)(C)C2=O)cc1`, 164 to 167 °C. As for `Cn1nnc(-c2ccc3c(ccn3-c3ccc(F)cc3)c2)n1`, the figure is 131 to 133 °C; as for `O=C1C=C(c2ccccc2)NCCN1`, 204 to 206 °C; as for `O=C(c1ccc(-c2cnc3c(c2)N(Cc2c(F)ccc(F)c2Cl)CCN3)cc1)N1CCC(N2CCCC2)CC1`, 93 to 95 °C.

As for `O=C(O)Cc1c(C(=O)c2cc(Cl)ccn2)[nH]c2cc(Cl)ccc12`, the melting point was 233 to 234 °C. As for `O=C1CCC(c2ccc(N=Cc3ccc(C(F)(F)F)cc3)cc2)=NN1`, the figure is 245 to 247 °C; as for `CCCN(CCC)CCc1ccc(OCc2ccccc2)c(NC(N)=O)c1`, 70 to 88 °C.

For `CCCCCCC(C)(C)c1cc(O)c2c(c1)OC(C)(C)CC2C(=O)O` (stereo not drawn), the melting point fell in the range of 147 to 148 °C. For `O=C(OCCn1ccnc1)c1ccccc1O` the value was 74 to 75 °C; for `COC(=O)C(Br)c1ccc(OCCCOc2ccc(Cl)cc2)cc1` (stereo not drawn), 49 to 53 °C; for `CCOC(=O)C1SC(c2ccc3ccccc3c2)=NN1C(=O)CCSC(C)=O` (stereo not drawn), 107 to 108 °C. The molecule `CCC(=C(c1ccccc1)c1ccc(C=CC(N)=NO)cc1)c1ccccc1` had a melting point of 182 to 185 °C.

Consider `CCCCCCNc1nc2nc(N)[nH]c(=O)c2s1`, for which the melting point was greater than 320 °C. For `O=c1[nH]ccn1-c1ccc(F)cc1F` the value was 192 to 194 °C; for `Nc1cc(CO)cc([N+](=O)[O-])c1-c1ccc(O)cc1`, 158 °C. As for `O=C(NCCCn1ccnc1)c1ccccc1`, the figure is 134 to 136 °C; as for `O=C(NCc1ccccc1)c1sc2ccccc2c1Br`, 115 to 117 °C; as for `COC(=O)c1ccc(C#N)cc1Cl`, 90 to 92 °C.

Regarding `CCOC(=O)c1cc(OC)c(OCC)c(OCC)c1-c1c(C(=O)OCC)cc(OC)c2c1OCO2`, the melting point was 73 to 74.5 °C. As for `CCOC(=O)CC[C@H](NC(=O)c1ccc(C(=Cc2cnc3nc(NC(=O)C(C)(C)C)nc(O)c3c2)COC2CCCCO2)cc1)C(=O)OCC` (stereo partly drawn), the figure is 273 to 275 °C; as for `COC(=O)C(Br)Cc1ccc(OC)c(C(=O)NCc2ccc(C(F)(F)F)cc2)c1` (stereo not drawn), 110 to 111 °C. As for `CCOP(=O)(CCC1(C)NC(=O)NC1=O)OCC` (stereo not drawn), the figure is 100 to 103 °C; as for `CCOC(=O)c1cc(-c2csc(-c3ccnc(NCC4CC4)c3)n2)c(=O)[nH]c1C`, greater than 260 °C; as for `CCOC(=O)C1=Cc2cc(-c3ccc(C(F)(F)F)cc3)ccc2OCC1`, 107 to 110 °C.

With `COCCNc1nc(N)nc(-c2cc(Cl)ccc2Cl)n1`, the melting point was 195 to 197 °C. For `COc1ccc(-c2ccccc2)cc1NC(=O)c1ncc[nH]1` the value was 276 °C; for `CCCCn1c(=S)sc2c(=N)n(NC(N)=O)cnc21`, 222 °C; for `CC(c1ncnc(Cl)c1F)C(O)(Cn1cncn1)c1ccc(F)cc1F` (stereo not drawn), 92 °C. As for `CS(=O)(=O)Nc1cc2occ(CO)c(=O)c2cc1Oc1ccccc1`, the figure is 165 to 166 °C. In turn, `COC(=O)CCNC(=O)C1CCCN1S(=O)(=O)c1ccc(Cl)c(COc2cccc3c(C)cc(C)nc23)c1Cl` (stereo not drawn) registered a melting point of 64 to 67 °C. As for `N#Cc1cc([N+](=O)[O-])ccc1Oc1c(F)c(F)cc(F)c1F`, the figure is 152 to 154 °C; as for `COC(=O)c1ccc(N)c(S(C)(=O)=O)c1`, 146 °C; as for `CC(C)CCOc1c(-c2ccc(S(C)(=O)=O)cc2)cnn(-c2cccc(Cl)c2)c1=O`, 134 to 135 °C.

Turning to `COc1cc(NCCCCCCN2CCN(c3ccccn3)CC2)c2nccc(C)c2c1`, the melting point fell in the range of 78 to 81 °C. For `CC(=O)N1CC(=O)C2=C(C1)CN1NC(N3CCOCC3)=NC1=N2` the value was 310 to 313 °C; for `S=C(NCCC1CC(c2ccccc2)=NO1)N1CCOCC1` (stereo not drawn), 128 to 130 °C. For `CCOC(=O)CC(NC(=O)c1ccc(F)cc1)C(=O)c1ccco1` (stereo not drawn) the value was 95.5 to 97 °C; for `CCOC(=O)c1cc(O)cc(O)c1`, 128 to 130 °C; for `CCOC(=O)Cc1sc(Sc2nc(C)ccc2C(=O)OCC)nc1C`, 95 to 97 °C. On to `CCC(=O)Oc1cccc2c1C(=O)c1c(OC(=O)CC)cccc1C2C(=O)CC(C)C`, for which the melting point stood at 124 °C.
